Assay results: paper PMC7972453, “The allosteric modulation of complement C5 by knob domain peptides” (eLife, 2021)
Bridges are numbered along the chain shown (N, C = ends). Where no end group is shown, it is not given here.

Key:
C5 activation by the AP = assay: Complement activation assays, alternative pathway (overall); assay type: biochemical; conditions: C5a release, C5b neo-epitope formation and C9 deposition ELISAs; human serum
Protocol: For functional characterisation of the peptides, we performed complement assays for CP and AP activation in human serum, assessing C5b neo-epitope formation and C5a release (schematically presented in Figure 1A, B), in combination with orthogonal ELISAs, measuring C3b and C9 deposition.
For the C3 and C9 ELISAs, microtiter plates (MaxiSorp; Nunc) were incubated overnight at 4°C with 50 µL of a solution of in 75 mM sodium carbonate (pH 9.6) containing either 2.5 µg/mL aggregated human IgG (Sigma-Aldrich, Gillingham, UK) for CP or 20 µg/mL zymosan (Sigma-Aldrich, Gillingham, UK) for AP. As a negative control, wells were coated with 1% (w/v) bovine serum albumin (BSA)/PBS. […] Complement activation was assessed through detection of deposited complement activation factors using specific antibodies against C3b (rat anti-human C3d HM2198, Hycult, Uden, The Netherlands) and C9 (goat anti-human C9, A226, Complement Technologies Tyler, TX) at a 1:1000 dilution. Bound primary antibodies were detected with […]-conjugated goat anti-rat (ab97057, Abcam, Cambridge, UK) or rabbit anti-goat (P0449, Agilent Dako, Santa Clara, CA) secondary antibodies at a 1:1000 dilution. Bound HRP-conjugated antibodies were detected using TMB One solution (Eco-TEK – manufactured by Bio-TEK, Winooski, VT) with absorbance measured at 450 nm. […]

C3b deposition = C3b deposition ELISA (CP and AP); assay type: biochemical; conditions: CP (1% serum) and AP (5% serum) ELISA, anti-human C3d
Protocol: (§1) For the C3 and C9 ELISAs, microtiter plates (MaxiSorp; Nunc) were incubated overnight at 4°C with 50 µL of a solution of in 75 mM sodium carbonate (pH 9.6) containing either 2.5 µg/mL aggregated human IgG (Sigma-Aldrich, Gillingham, UK) for CP or 20 µg/mL zymosan (Sigma-Aldrich, Gillingham, UK) for AP. As a negative control, wells were coated with 1% (w/v) bovine serum albumin (BSA)/PBS. Microtiter plates were washed four times with 250 µL of wash buffer (50 mM Tris-HCl), 150 mM NaCl and 0.1% Tween 20 (pH 8) between each step of the procedure. Wells were blocked using 250 µL of 1% (w/v) BSA/PBS for 2 hr at room temperature. […] Complement activation was assessed through detection of deposited complement activation factors using specific antibodies against C3b (rat anti-human C3d HM2198, Hycult, Uden, The Netherlands) and C9 (goat anti-human C9, A226, Complement Technologies Tyler, TX) at a 1:1000 dilution. Bound primary antibodies were detected with […]-conjugated goat anti-rat (ab97057, Abcam, Cambridge, UK) or rabbit anti-goat (P0449, Agilent Dako, Santa Clara, CA) secondary antibodies at a 1:1000 dilution. Bound HRP-conjugated antibodies were detected using TMB One solution (Eco-TEK – manufactured by Bio-TEK, Winooski, VT) with absorbance measured at 450 nm.

[1] = system: alternative pathway mediated C9 deposition; assay: Inhibition of alternative pathway mediated C9 deposition (ELISA); assay type: biochemical, human; conditions: 5% serum, n=3, ND* = Not detected
Protocol: as §1, with “nm. […]” for “nm.”

[2] = system: classical pathway mediated C9 deposition; assay: Inhibition of classical pathway mediated C9 deposition (ELISA); assay type: biochemical, human; conditions: CP C9 deposition; 1% serum; n=3; ND* = Not detected
Protocol: as §1, with “nm. […]” for “nm.”

In the case of “SVCPDGFDWGYGCAAGSSRFCTRHDWCCYDERADSHTYGFCTGNRVENLYFQ (disulfide 3-28, 13-21, 27-41) [K8]”, the “inhibition of C5 activation, AP assays (in words)” value (C5 activation by the AP) is reported as “partially inhibiting both the AP and CP”, the “effect on C3b deposition” value (C3b deposition) is reported as “no effect on C3b deposition was detected” and the “Average Emax” value ([1]; AP C9 deposition) is reported as 73.3%. For the same sequence, the IC50 ([1]; AP, Mg-EGTA pH 7.3, zymosan plate, preincubated on ice 30 min, 60 min 37°C, read-out: Geomean IC50) was 0.232 µM and the “Average Emax” value [2] was 63.4%.
